{
  "source": "ChEMBL document CHEMBL4251565",
  "about": "“Functionalized 2,1-benzothiazine 2,2-dioxides as new inhibitors of Dengue NS5 RNA-dependent RNA polymerase” (Eur J Med Chem, 2018)",
  "key": {"[1]": {"biological_target": "T1, Nonstructural protein 5 (Dengue virus, UniProt V5TFZ2)", "T1 sequence (V5TFZ2 whole entry)": "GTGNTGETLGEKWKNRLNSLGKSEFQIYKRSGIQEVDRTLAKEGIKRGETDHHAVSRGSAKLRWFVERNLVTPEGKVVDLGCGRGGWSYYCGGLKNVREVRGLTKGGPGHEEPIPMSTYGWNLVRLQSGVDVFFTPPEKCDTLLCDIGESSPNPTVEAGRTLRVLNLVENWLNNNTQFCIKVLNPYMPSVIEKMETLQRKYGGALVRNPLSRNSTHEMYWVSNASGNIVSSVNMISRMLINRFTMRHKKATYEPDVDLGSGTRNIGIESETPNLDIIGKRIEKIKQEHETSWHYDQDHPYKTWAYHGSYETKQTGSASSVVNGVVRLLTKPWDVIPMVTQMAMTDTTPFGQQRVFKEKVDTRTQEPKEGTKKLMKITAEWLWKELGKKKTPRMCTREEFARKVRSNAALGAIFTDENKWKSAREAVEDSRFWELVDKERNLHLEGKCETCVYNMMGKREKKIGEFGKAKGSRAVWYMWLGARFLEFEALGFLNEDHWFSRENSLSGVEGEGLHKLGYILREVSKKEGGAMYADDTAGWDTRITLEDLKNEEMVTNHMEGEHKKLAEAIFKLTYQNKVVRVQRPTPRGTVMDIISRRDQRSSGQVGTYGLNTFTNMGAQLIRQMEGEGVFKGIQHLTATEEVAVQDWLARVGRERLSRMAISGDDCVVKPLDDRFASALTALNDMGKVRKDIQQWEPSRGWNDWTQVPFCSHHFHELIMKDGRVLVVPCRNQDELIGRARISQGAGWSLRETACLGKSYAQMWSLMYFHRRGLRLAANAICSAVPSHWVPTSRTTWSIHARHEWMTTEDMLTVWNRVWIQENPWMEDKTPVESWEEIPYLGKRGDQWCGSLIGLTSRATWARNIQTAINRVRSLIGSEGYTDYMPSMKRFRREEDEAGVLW", "test": "Inhibition of DENV3 NS5 RdRp using ss-RNA PolyC as template and GTP as substrate assessed as decrease in dsRNA levels after 1 hr by PicoGreen-based fluorescence assay", "parameters": "species or system dengue virus type 3"}, "[2]": {"biological_target": "T1, Nonstructural protein 5", "test": "Inhibition of DENV3 full length NS5 RdRp assessed as decrease in dsRNA levels preincubated for 20 mins followed by ss-RNA and ATTO-CTP, ATP, GTP and UTP addition measured after 120 mins by FAPA assay", "parameters": "species or system dengue virus type 3"}, "[3]": {"biological_target": "T1, Nonstructural protein 5", "test": "Mixed type inhibition of DENV3 NS5 RdRp using increasing concentration of GTP as substrate assessed as enzyme-substrate complex after 1 hr in presence of ss-RNA PolyC template by Lineweaver-Burk double reciprocal plot analysis", "parameters": "species or system dengue virus type 3"}, "[4]": {"biological_target": "T1, Nonstructural protein 5", "test": "Binding affinity to DENV3 NT-647-NHS labeled NS5 RdRp after 1 hr by microscale thermophoresis method", "parameters": "species or system dengue virus type 3"}, "[5]": {"test": "Induction of colloidal aggregate formation in aqueous medium at 50 uM measured for 5 mins by light scattering-based photon correlation spectroscopy", "format": "physicochemical", "conditions": "buffer; call rule not given here"}, "[6]": {"test": "Cytotoxicity against African green monkey Vero E6 cells by Cell Titer-blue method", "format": "cell-based, Vero C1008", "conditions": "chlorocebus sabaeus"}, "[7]": {"biological_target": "T1, Nonstructural protein 5", "test": "Mixed type inhibition of DENV3 NS5 RdRp using increasing concentration of ss-RNA PolyC as template assessed as free enzyme after 1 hr in presence of GTP substrate by Lineweaver-Burk double reciprocal plot analysis", "parameters": "species or system dengue virus type 3"}, "[8]": {"biological_target": "T1, Nonstructural protein 5", "test": "Mixed type inhibition of DENV3 NS5 RdRp using increasing concentration of ss-RNA PolyC as template assessed as enzyme-substrate complex after 1 hr in presence of GTP substrate by Lineweaver-Burk double reciprocal plot analysis", "parameters": "species or system dengue virus type 3"}, "[9]": {"biological_target": "T1, Nonstructural protein 5", "test": "Mixed type inhibition of DENV3 NS5 RdRp using increasing concentration of GTP as substrate assessed as free enzyme after 1 hr in presence of ss-RNA PolyC template by Lineweaver-Burk double reciprocal plot analysis", "parameters": "species or system dengue virus type 3"}},
  "data": [
    {"molecule": "CN1c2c(C(=O)Nc3ccc(NS(C)(=O)=O)cc3)nn(-c3cccc(F)c3)c2-c2ccccc2S1(=O)=O", "values": [
      {"measurement": "IC50", "setting": "[1]", "value": 17.3, "unit": "µM"}
    ]},
    {"molecule": "CN1c2c(C(=O)Nc3ccc(NS(C)(=O)=O)cc3)nn(-c3ccc(Cl)cc3)c2-c2ccccc2S1(=O)=O", "values": [
      {"measurement": "IC50", "setting": "[1]", "value": 13.6, "unit": "µM"}
    ]},
    {"molecule": "Cc1ccc(-n2nc(C(=O)Nc3ccc(NS(C)(=O)=O)cc3)c3c2-c2ccccc2S(=O)(=O)N3C)cc1", "values": [
      {"measurement": "IC50", "setting": "[1]", "value": 14.1, "unit": "µM"}
    ]},
    {"molecule": "CCOC1=CS(=O)(=O)Nc2ccc(Oc3ccccc3Br)cc21", "values": [
      {"measurement": "IC50", "setting": "[1]", "value": 41.5, "unit": "µM"}
    ]},
    {"molecule": "CC(C)(C)c1cccc(Oc2ccc3c(c2)C(OC(=O)c2ccccc2)=CS(=O)(=O)N3)c1", "values": [
      {"measurement": "IC50", "setting": "[1]", "value": 15.8, "unit": "µM"}
    ]},
    {"molecule": "CN1c2ccc(Oc3cccc(Br)c3)cc2C(OC(=O)c2ccccc2)=CS1(=O)=O", "values": [
      {"measurement": "IC50", "setting": "[1]", "value": 2.6, "unit": "µM"}
    ]},
    {"molecule": "O=C(OC1=CS(=O)(=O)Nc2ccc(Oc3cccc(Br)c3)cc21)c1ccccc1", "values": [
      {"measurement": "IC50", "setting": "[1]", "value": 7, "unit": "µM"}
    ]},
    {"molecule": "COC1=CS(=O)(=O)N(C(=O)c2ccccc2)c2ccc(Oc3ccccc3Br)cc21", "values": [
      {"measurement": "IC50", "setting": "[1]", "value": 46.2, "unit": "µM"}
    ]},
    {"molecule": "CCc1cccc(Oc2ccc3c(c2)C(OC(=O)c2ccccc2)=CS(=O)(=O)N3)c1", "values": [
      {"measurement": "IC50", "setting": "[1]", "value": 6.9, "unit": "µM"}
    ]},
    {"molecule": "COc1ccc(C(=O)OC2=CS(=O)(=O)Nc3ccc(Oc4cccc(Br)c4)cc32)cc1[N+](=O)[O-]", "values": [
      {"measurement": "IC50", "setting": "[1]", "value": 4.7, "unit": "µM"}
    ]},
    {"molecule": "O=C(O)c1cc(Oc2cccc(Br)c2)ccc1NS(=O)(=O)c1ccc([N+](=O)[O-])cc1", "values": [
      {"measurement": "IC50", "setting": "[1]", "value": 1.7, "unit": "µM"}
    ]},
    {"molecule": "COc1cc(C)c(C(=O)NS(=O)(=O)c2cccc3cccnc23)cc1-c1ccc(C#CCO)s1", "values": [
      {"measurement": "IC50", "setting": "[2]", "value": 16, "unit": "nM"}
    ]},
    {"molecule": "O=C(OC1=CS(=O)(=O)Nc2ccc(Oc3ccc(Br)cc3)cc21)c1ccccc1", "values": [
      {"measurement": "IC50", "setting": "[1]", "value": 4.7, "unit": "µM"}
    ]},
    {"molecule": "COc1ccc(C(=O)OC2=CS(=O)(=O)Nc3ccc(Oc4ccccc4Br)cc32)cc1[N+](=O)[O-]", "values": [
      {"measurement": "IC50", "setting": "[1]", "value": 6.3, "unit": "µM"}
    ]},
    {"molecule": "O=C1CCN(C(=O)c2ccccc2)c2ccc(Oc3ccccc3Br)cc21", "values": [
      {"measurement": "IC50", "setting": "[1]", "value": "> 50", "unit": "µM"}
    ]},
    {"molecule": "O=C(OC1=CS(=O)(=O)Nc2ccc(Oc3ccccc3Br)cc21)c1ccccc1", "values": [
      {"measurement": "IC50", "setting": "[1]", "value": 30.8, "unit": "µM"}
    ]},
    {"molecule": "COC1=CS(=O)(=O)Nc2ccc(Oc3ccccc3Br)cc21", "values": [
      {"measurement": "IC50", "setting": "[1]", "value": "> 50", "unit": "µM"}
    ]},
    {"molecule": "O=C(OC1=CS(=O)(=O)Nc2ccc(Oc3ccccc3Br)cc21)c1ccc(F)c(F)c1", "values": [
      {"measurement": "Ki", "setting": "[3]", "value": 1580, "unit": "nM"},
      {"measurement": "Kd", "setting": "[4]", "value": 1100, "unit": "nM"},
      {"measurement": "Activity", "setting": "[5]", "value": "Not Active"},
      {"measurement": "IC50", "setting": "[1]", "value": 0.6, "unit": "µM"},
      {"measurement": "CC50", "setting": "[6]", "value": 80, "unit": "µM"},
      {"measurement": "Ki", "setting": "[7]", "value": 1540, "unit": "nM"},
      {"measurement": "Ki", "setting": "[8]", "value": 4.33, "unit": "µM"},
      {"measurement": "Ki", "setting": "[9]", "value": 252, "unit": "nM"}
    ]},
    {"molecule": "O=C(OC1=CS(=O)(=O)Nc2ccc(Oc3cccc(Br)c3)cc21)c1cccc([N+](=O)[O-])c1", "values": [
      {"measurement": "IC50", "setting": "[1]", "value": 8.4, "unit": "µM"}
    ]},
    {"molecule": "O=C(O)c1cc(Oc2cccc(Br)c2)ccc1NS(=O)(=O)c1ccccc1", "values": [
      {"measurement": "IC50", "setting": "[1]", "value": 4.5, "unit": "µM"}
    ]},
    {"molecule": "O=C1CS(=O)(=O)N(C(=O)c2ccccc2)c2ccc(Oc3ccccc3Br)cc21", "values": [
      {"measurement": "IC50", "setting": "[1]", "value": 11.4, "unit": "µM"}
    ]},
    {"molecule": "COc1cccc(Oc2ccc3c(c2)C(OC(=O)c2ccccc2)=CS(=O)(=O)N3)c1", "values": [
      {"measurement": "IC50", "setting": "[1]", "value": 20.3, "unit": "µM"}
    ]},
    {"molecule": "O=C(OC1=CS(=O)(=O)Nc2ccc(Oc3cccc(Br)c3)cc21)c1ccc(F)c(F)c1", "values": [
      {"measurement": "IC50", "setting": "[1]", "value": 0.9, "unit": "µM"}
    ]},
    {"molecule": "O=C(OC1=CS(=O)(=O)Nc2ccc(Oc3cccc(F)c3)cc21)c1ccccc1", "values": [
      {"measurement": "IC50", "setting": "[1]", "value": 7, "unit": "µM"}
    ]}
  ]
}
